According to publication PMC10610505, “Synthesis and Biological Evaluation of Some New 3-Aryl-2-thioxo-2,3-dihydroquinazolin-4(1H)-ones and 3-Aryl-2-(benzylthio)quinazolin-4(3H)-ones as Antioxidants; COX-2, LDHA, α-Glucosidase and α-Amylase Inhibitors; and Anti-Colon Carcinoma and Apoptosis-Inducing Agents” (Pharmaceuticals, 2023):

Key:
Bax gene = experiment: qRT-PCR expressional level of Bax gene; assay type: cell-based, human; conditions: 10 µg/mL, HCT-116 and LoVo cells, vs negative control
Experimental: Considering these facts, enhancing apoptosis has been extensively studied as a potential drug target in cancer therapy, therefore, in this study, we investigated the effects of the most cytotoxic compounds, 3a and 3f, (at 10 µg/mL, 24 h incubation) on the expressional levels of these apoptotic regulator genes (Bax and Bcl-2) using quantitative reverse transcription–polymerase chain reactions (qRT-PCR).
(§1) Briefly, in a 25 mL flask (1 × 10^6 cells/flask), the human colon cancer cell lines (HCT-116 and LoVo) were grown for 24 h. After replacing the culture media with a medium containing 1% FBS for 24 h, the cells were treated with 10 µg/mL of each tested compound in 2 mL of fresh medium containing 1% FBS, or 0.25% DMSO, which was used as the negative control. The cells were adherent cells and they were detached using trypsin after being washed with ice-cold phosphate-buffered saline (PBS).
(§2) Primers specific for the Bax, Bcl-2 and Caspase-3 genes were designed using the primer blast (https://www.ncbi.nlm.nih.gov/tools/primer-blast/ accessed on 9 January 2023) software. The primers were used in the RT-qPCR analysis to amplify fragments of 100–200 bp in length (Table 11).
The RNeasy Mini Kit (Qiagen, Hilden, Germany) was used to extract the total RNA. The RNA purity, quality and quantity were checked using a Nanodrop 8000 spectrophotometer (Thermo Fisher Scientific, USA). […]

LoVo carcinoma cells = experiment: Cell cycle assay (PI flow cytometry), LoVo; assay type: cell-based, human; conditions: 50 µg/mL, 48 h
Experimental: In the current study, the cell cycle distribution of the treated HCT-116 and LoVo carcinoma cells with compounds 3a and 3f was assessed by labeling the cell’s DNA with PI stain in order to determine if the induction of apoptosis in carcinoma cells could be related to the cell cycle arrest (Figure 8A–F). The intensity of the PI stain is proportional to the cell’s DNA content (Figure 9). […] The ability of the tested compounds (3a and 3f) to block the cell cycle progression in LoVo and HCT-116 cells confirmed their anticancer potential against these colon carcinoma cell lines and could explain the mechanism of the observed cytotoxicity.
Changes in cell cycle distribution induced by compounds 3a and 3f were analyzed using a flow cytometric analysis according to Nicoletti et al. 1991 [108] using a Propidium Iodide Flow Cytometry Kit for Cell Cycle Analysis (Abcam-UK). HCT-116 and LoVo carcinoma cells (5 × 10^4 cells/mL) were treated with DMSO as a negative control, and compounds 3a and 3f (50 µg/mL), for 48 h. After the centrifugation of the treated cells at 1800 rpm for 5 min, the pellet was washed twice with PBS. Then, the cells were fixed by mixing […] of 90% cold ethanol, and stained with propidium iodide (PI) for 1 h at 37 °C. […] The stained cells were analyzed for their DNA content using a BD FACSC flow cytometer.

[1] = target: purified recombinant human LDHA protein (Homo sapiens, UniProt P00338); experiment: Lactate dehydrogenase A (LDHA) inhibitory assay; assay type: biochemical; conditions: for Fold change of LDHA inhibition as compared to 0.1 mg/mL: % inhibition at 0.200 mg/mL divided by % inhibition at 0.100 mg/mL; for inhibition at 100 µg/mL: at 0.1 mg/mL; for inhibition at 100 µg/mL / inhibition at 200 µg/mL: read-out: LDHA mean % inhibition ± SD; for inhibition at 200 µg/mL: at 0.2 mg/mL
Experimental: The LDHA inhibitory effectiveness was investigated by measuring the amounts of consumed NADH [73]. […] The fluorescence of NADH, which has an excitation wavelength of 340 nm and an emission wavelength of 460 nm, was detected using a spectrofluorometer. […] The LDHA inhibitory efficiency was expressed as an inhibition percentage, which was determined via a comparison with the negative control experiments.

caspase-3 gene = experiment: qRT-PCR expressional level of caspase-3 gene; assay type: cell-based, human; conditions: 10 µg/mL, 24 h
Experimental: Therefore, in this study the expressional levels of caspase-3 as a major apoptosis effector were evaluated in 3a- and 3f-treated HCT-116 and LoVo cell cultures (10 µg/mL, for 24 h incubation), using qRT-PCR analysis.
as §1, §2
The RNeasy Mini Kit (Qiagen, Hilden, Germany) was used to extract the total RNA. The RNA purity, quality and quantity were checked using a Nanodrop 8000 spectrophotometer (Thermo Fisher Scientific, USA). The Hyperscript Kit (GeneAll, Seoul, Korea) and random hexamers (GeneAll, Seoul, Korea ) were used to reverse-transcript 1 µg of RNA from each sample into cDNA as described in the manufacturer’s protocol.
A QuantStudio 7Flex Detection System (Applied Biosystems, Thermo Fischer Scientific, Inc., USA) was used to measure the mRNA expression of Bax, Caspase-3 and Bcl-2. The reactions for the synthesis of cDNA were carried out using an iScript One-Step RT-PCR Kit with SYBR Green (cat no: 170–8892; Bio-Rad, Inc., Hercules, CA, USA). Briefly, primers (Table 10) were added to the reaction mixture at a final concentration of 10 pM. Thus, 5 µL of each cDNA sample were added to a […] PCR mixture consisting of 12.5 µL of 2 × iScript One-Step RT-PCR Kit with SYBR Green, 0.5 µL of primers for Bax, Caspase-3 and Bcl-2 as well as GAPDH (Macrogen, Seoul, Korea), and 7 µL RNase/DNase-free water (Qiagen, DE). The thermal cycling conditions for Bax, Caspase-3 and Bcl-2 were established as 5 min at 95 °C, followed by 40 cycles of 30 s at 95 °C and 30 s at 60 °C, and finally 10 s at 95 °C. The presence of a single melting temperature peak verified the specificity of each primer. The expression of a house-keeping gene, GAPDH, was used as an endogenous control for the current work.

O=c1c2cc(Cl)ccc2[nH]c(=S)n1-c1cccc(C(F)(F)F)c1 [Compound 3a, 6-Chloro-2-thioxo-3-(3-trifluoromethyl-phenyl)-2,3-dihydro-1H-quinazolin-4-one] was tested, and the “Expression level of Bax gene” value (Bax gene) was “upregulate”, the “Cells in G2/M phase (%DIP G2/M)” value (LoVo carcinoma cells) was 22.64% and the “Fold change of LDHA inhibition as compared to 0.1 mg/mL” value [1] was 1.84 fold. For the same compound, the inhibition at 100 µg/mL [1] was 53.5 ± 1.13%, the inhibition at 200 µg/mL [1] was 98.5 ± 1.34% and the IC50 ([1]; mean ± SD of three replicates) was 273 µM. The “Expression level of caspase-3 gene (upregulated)” value (shortened to “Expression level … (upregulated)”) (caspase-3 gene; HCT-116, vs negative control) was 3.731 fold and the “Expression level … (upregulated)” value (caspase-3 gene; LoVo, vs negative control) was 2.6026 fold.

O=c1c2cc(Cl)ccc2[nH]c(=S)n1-c1ccc([N+](=O)[O-])cc1 [Compound 3f, 6-Chloro-3-(4-nitro-phenyl)-2-thioxo-2,3-dihydro-1H-quinazolin-4-one] was tested, and the “Expression level of Bax gene” value (Bax gene) was “upregulate”, the “Cells in G2/M phase (%DIP G2/M)” value (LoVo carcinoma cells) was 29.16% and the “Fold change of LDHA inhibition as compared to 0.1 mg/mL” value [1] was 1.59 fold. The inhibition at 100 µg/mL [1] was 21.5 ± 1.56%, the inhibition at 200 µg/mL [1] was 34.2 ± 1.77% and the “Expression level … (upregulated)” value (caspase-3 gene; HCT-116, vs negative control) was 6.071 fold. For the same compound, the “Expression level … (upregulated)” value (caspase-3 gene; LoVo, vs negative control) was 6.9340 fold.
